Laboratory results taken from article PMC4471902, “Block of NMDA receptor channels by endogenous neurosteroids: implications for the agonist induced conformational states of the channel vestibule” (Scientific Reports, 2015).
Values joined by “and” are separate entries in the source; they are usually repeats but may differ in a detail not shown here. Equal values may be shown once. Where a name gives a salt, the structure may show the parent alone.

Experiments:
[1] = molecular target: T1, GluN1ΔC/GluN2BΔC (Rattus norvegicus, UniProt P35439+Q00960); assay: Whole-cell patch-clamp of C-terminal truncated NMDARs in HEK293 cells; type: cell-based
T1 construct: expressed in transfected cells; host or cells: HEK293
Text: Human embryonic kidney (HEK293) cells were transfected with expression vectors containing: GluN1–1a (GenBank accession number U08261)[52]; GluN2B (GenBank accession number M91562); GluN1-4a(F484A), (generous gift from Dr. J. J. Woodward)[53] (Smothers & Woodward, 2009); GluN3A (generous gift from Dr. S. A. Lipton)[54] (GenBank accession number NM_138546); GluN1ΔN with deleted 354 amino acids in the NTD (32 to 386); GluN1ΔC with an introduced stop codon in 838 of the CTD GluN2BΔN) with deleted 354 amino acids in the NTD (32 to 386); GluN2BΔC with an introduced stop codon in 844 of the CTD[55]; GluR0 (GenBank accession number Synechocystis PCC 6803) (generous gift from Dr. M. L. Mayer)[18]; and green fluorescent protein (GFP) (pQBI 25, Takara, Tokyo, Japan) genes, as described previously. The Quick-Change site-directed mutagenesis kit (Agilent Technologies, Santa Clara, CA, USA) was used to generate specific point mutations in the M1/M3 region according to the manufacturer’s instructions using manually designed primers purchased from Sigma. Modified DNA plasmids were transformed into competent XL10-Gold E.coli cells, positive clones were selected, and isolated DNA was sequenced. […]
The IC50 was determined from a single dose of a steroid using the formula [drawing 1] where I is the relative degree of inhibition and [steroid] is the steroid concentration used. […]

[2] = Light scattering analysis of particle size in ECS; type: physicochemical
Experimental: Light scattering (Zetasizer Nano ZS, Malvern Instruments, United Kingdom) was used to characterize particle size of PA-S in ECS. PA-S was dissolved in DMSO at a concentration of 20 mM and then in the ECS at a final concentration of 5 nM to 150 μM PA-S. This solution was sonicated (Ultrasonic Sonorex Super RK 103 H, Bandelin electronic GmbH & Co. KG, Germany) for 1 min. Light scattering analysis was repeated six times for each sample at 25 °C.

Structure (SMILES): CC(=O)[C@H]1CC[C@H]2[C@@H]3CC[C@@H]4C[C@H](OS(=O)(=O)O)CC[C@]4(C)[C@H]3CC[C@]12C [PA-S, 20-oxo-5β-pregnan-3α-yl sulfate]
- IC50 [1]: 34 ± 3 µM
- PA-S concentration at which two particle sizes are present ([2]; ECS): > 300 nM
- PA-S concentration at which two particle sizes were observed ([2]; ECS): ≥ 0.4 µM
- small particle size (single steroid molecule) ([2]; ECS): ~ 2.5 nm
- critical aggregate concentration (CAC) ([2]; ECS, 25 °C): ~ 300 nM and 300 nM
- size of aggregates ([2]; ECS, concentrations relevant to effect at the NMDAR): ~ 400 nm
- molecules present in the ECS in aggregates ([2]; at the PA-S concentration corresponding to its IC50 at NMDARs): 99.5%
